Key:
Assay in all cases: Histone peptide microarray
Format in all cases: binding, human
ING1 = test system: ING1
In short: (§1)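 Using an optimized microarray protocol, purified GST-tagged PHD fingers were incubated at 0.5 μM on 293 histone peptides with single or multiple modifications, and array signal was recorded as the average of 4 replicates.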

AIRE (PP) = test system: AIRE (PP)
In short: as §1

KDM4C (TTP) = test system: KDM4C (TTP)
In short: as §1

KDM5A (3) = test system: KDM5A (3)
In short: as §1

PHF8 = test system: PHF8
In short: as §1

ING5 = test system: ING5
In short: as §1

TRIM66 (PB) = test system: TRIM66 (PB)
In short: as §1

MORC3 (CW) = test system: MORC3 (CW)
In short: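 Binding read as mean relative signal from 4 replicates; microarray held 293 synthetic histone peptides with single or combinatorial PTMs. Each GST-tagged PHD reader was applied at 0.5 μM using the optimized Petell protocol.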

KDM7A = test system: KDM7A
In short: as §1

ING2 = test system: ING2
In short: as §1

CHD5 (PPCC) = test system: CHD5 (PPCC)
In short: as §1

KDM5A (1) = test system: KDM5A (1)
In short: as §1

PHRF1 (RP) = test system: PHRF1 (RP)
In short: as §1

PHF23 = test system: PHF23
In short: as §1

ING3 = test system: ING3
In short: as §1

PHF13 = test system: PHF13
In short: as §1

DPF2 (PPC2W2) = test system: DPF2 (PPC2W2)
In short: as §1

KDM5B (1) = test system: KDM5B (1)
In short: as §1

PHF21A = test system: PHF21A
In short: as §1

RAG2 = test system: RAG2
In short: as §1

TAF3 = test system: TAF3
In short: as §1

SP140L = test system: SP140L
In short: as §1

ING4 = test system: ING4
In short: as §1

DIDO1 = test system: DIDO1
In short: as §1

PHF2 = test system: PHF2
In short: as §1

KDM5B (3) = test system: KDM5B (3)
In short: as §1

CHD4 (PPCC) = test system: CHD4 (PPCC)
In short: as §1

BPTF (PB) = test system: BPTF (PB)
In short: as §1

BAZ2B = test system: BAZ2B
In short: as §1

MLL5 = test system: MLL5
In short: as §1

CHD5 (PCC) = test system: CHD5 (PCC)
In short: as §1

[1] = histone peptide array, GST-tagged reader, arrays performed twice, n of 4
[2] = histone peptide array, GST-tagged reader, PB = PHD + Bromodomain, arrays performed twice, n of 4
[3] = histone peptide array, GST-tagged reader, PPCC = Dual PHD + Dual Chromodomain, arrays performed twice, n of 4

Substance: H4K5proK8proK12pro: H4 1-23
- Array Heatmap value (peptide array signal) (ING1; ING1, sheet "Array Heatmap", each array performed twice, total n = 4): 0.5929
- Array Heatmap value (peptide array signal) (AIRE (PP); AIRE (PP), sheet "Array Heatmap", each array performed twice, total n = 4): 0.5223
- Array Heatmap value (peptide array signal) (KDM4C (TTP); KDM4C (TTP), sheet "Array Heatmap", each array performed twice, total n = 4): 0.5585
- Array Heatmap value (peptide array signal) (KDM5A (3); KDM5A (3), sheet "Array Heatmap", each array performed twice, total n = 4): 0.4569
- Array Heatmap value (peptide array signal) (PHF8; PHF8, sheet "Array Heatmap", each array performed twice, total n = 4): 0.41
- Array Heatmap value (peptide array signal) (ING5; ING5, sheet "Array Heatmap", each array performed twice, total n = 4): 0.4117
- Array Heatmap value (peptide array signal) (TRIM66 (PB); TRIM66 (PB), sheet "Array Heatmap", each array performed twice, total n = 4): 0.6547
- Array Heatmap value (peptide array signal) (MORC3 (CW); MORC3 (CW), sheet "Array Heatmap", each array performed twice, total n = 4): 0.3861
- Array Heatmap value (peptide array signal) (KDM7A; KDM7A, sheet "Array Heatmap", each array performed twice, total n = 4): 0.3949
- Array Heatmap value (peptide array signal) (ING2; ING2, sheet "Array Heatmap", each array performed twice, total n = 4): 0.6246
- Array Heatmap value (peptide array signal) (CHD5 (PPCC); CHD5 (PPCC), sheet "Array Heatmap", each array performed twice, total n = 4): 0.65
- Array Heatmap value (peptide array signal) (KDM5A (1); KDM5A (1), sheet "Array Heatmap", each array performed twice, total n = 4): 0.5265
- Array Heatmap value (peptide array signal) (PHRF1 (RP); PHRF1 (RP), sheet "Array Heatmap", each array performed twice, total n = 4): 0.4879
- Array Heatmap value (peptide array signal) (PHF23; PHF23, sheet "Array Heatmap", each array performed twice, total n = 4): 0.5776
- Array Heatmap value (peptide array signal) (ING3; ING3, sheet "Array Heatmap", each array performed twice, total n = 4): 0.5538
- Array Heatmap value (peptide array signal) (PHF13; PHF13, sheet "Array Heatmap", each array performed twice, total n = 4): 0.7138
- Array Heatmap value (peptide array signal) (DPF2 (PPC2W2); DPF2 (PPC2W2), sheet "Array Heatmap", each array performed twice, total n = 4): 0.725
- Array Heatmap value (peptide array signal) (KDM5B (1); KDM5B (1), sheet "Array Heatmap", each array performed twice, total n = 4): 0.629
- Array Heatmap value (peptide array signal) (PHF21A; PHF21A, sheet "Array Heatmap", each array performed twice, total n = 4): 0.5432
- Array Heatmap value (peptide array signal) (RAG2; RAG2, sheet "Array Heatmap", each array performed twice, total n = 4): 0.2779
- Array Heatmap value (peptide array signal) (TAF3; TAF3, sheet "Array Heatmap", each array performed twice, total n = 4): 0.2924
- Array Heatmap value (peptide array signal) (SP140L; SP140L, sheet "Array Heatmap", each array performed twice, total n = 4): 0.3966
- Array Heatmap value (peptide array signal) (ING4; ING4, sheet "Array Heatmap", each array performed twice, total n = 4): 0.5361
- Array Heatmap value (peptide array signal) (DIDO1; DIDO1, sheet "Array Heatmap", each array performed twice, total n = 4): 0.7693
- Array Heatmap value (peptide array signal) (PHF2; PHF2, sheet "Array Heatmap", each array performed twice, total n = 4): 0.5444
- Array Heatmap value (peptide array signal) (KDM5B (3); KDM5B (3), sheet "Array Heatmap", each array performed twice, total n = 4): 0.4906
- Array Heatmap value (peptide array signal) (CHD4 (PPCC); CHD4 (PPCC), sheet "Array Heatmap", each array performed twice, total n = 4): 0.656
- Array Heatmap value (peptide array signal) (BPTF (PB); BPTF (PB), sheet "Array Heatmap", each array performed twice, total n = 4): 0.4022
- Array Heatmap value (peptide array signal) (BAZ2B; BAZ2B, sheet "Array Heatmap", each array performed twice, total n = 4): 0.5476
- Array Heatmap value (peptide array signal) (MLL5; MLL5, sheet "Array Heatmap", each array performed twice, total n = 4): 0.612
- Array Heatmap value (peptide array signal) (CHD5 (PCC); CHD5 (PCC), sheet "Array Heatmap", each array performed twice, total n = 4): 0.8593

Substance: H4K8but (1-23): H4 1-23
- Array Heatmap signal, ING1 (ING1; [1]): 0.5208
- Array Heatmap signal, AIRE (PP) (AIRE (PP); [1]): 0.5833
- Array Heatmap signal, KDM4C (TTP) (KDM4C (TTP); histone peptide array, GST-tagged reader, TTP = Tandem Tudor domain + PHD, arrays performed twice, n of 4): 0.554
- Array Heatmap signal, KDM5A (3) (KDM5A (3); [1]): 0.4217
- Array Heatmap signal, PHF8 (PHF8; [1]): 0.3491
- Array Heatmap signal, ING5 (ING5; [1]): 0.3969
- Array Heatmap signal, TRIM66 (PB) (TRIM66 (PB); [2]): 0.6276
- Array Heatmap signal, MORC3 (CW) (MORC3 (CW); histone peptide array, GST-tagged reader, CW = CW-type Zn-finger, arrays performed twice, n of 4): 0.3738
- Array Heatmap signal, KDM7A (KDM7A; [1]): 0.4551
- Array Heatmap signal, ING2 (ING2; [1]): 0.5968
- Array Heatmap signal, CHD5 (PPCC) (CHD5 (PPCC); [3]): 0.6043
- Array Heatmap signal, KDM5A (1) (KDM5A (1); [1]): 0.5298
- Array Heatmap signal, PHRF1 (RP) (PHRF1 (RP); [1]): 0.4442
- Array Heatmap signal, PHF23 (PHF23; [1]): 0.5244
- Array Heatmap signal, ING3 (ING3; [1]): 0.4842
- Array Heatmap signal, PHF13 (PHF13; [1]): 0.6477
- Array Heatmap signal, DPF2 (PPC2W2) (DPF2 (PPC2W2); histone peptide array, GST-tagged reader, PPC2W2 = Dual PHD + C2W2-type Zn-finger, arrays performed twice, n of 4): 0.6771
- Array Heatmap signal, KDM5B (1) (KDM5B (1); [1]): 0.6708
- Array Heatmap signal, PHF21A (PHF21A; [1]): 0.5096
- Array Heatmap signal, RAG2 (RAG2; [1]): 0.2428
- Array Heatmap signal, TAF3 (TAF3; [1]): 0.3164
- Array Heatmap signal, SP140L (SP140L; [1]): 0.3902
- Array Heatmap signal, ING4 (ING4; [1]): 0.503
- Array Heatmap signal, DIDO1 (DIDO1; [1]): 0.6187
- Array Heatmap signal, PHF2 (PHF2; [1]): 0.4448
- Array Heatmap signal, KDM5B (3) (KDM5B (3); [1]): 0.4914
- Array Heatmap signal, CHD4 (PPCC) (CHD4 (PPCC); [3]): 0.5879
- Array Heatmap signal, BPTF (PB) (BPTF (PB); [2]): 0.3704
- Array Heatmap signal, BAZ2B (BAZ2B; [1]): 0.516
- Array Heatmap signal, MLL5 (MLL5; [1]): 0.5606
- Array Heatmap signal, CHD5 (PCC) (CHD5 (PCC); histone peptide array, GST-tagged reader, PCC = PHD + Dual Chromodomain, arrays performed twice, n of 4): 0.8434

Substance: H4K8me1: H4 1-23 [Peptide H4K8me1]
- Array Heatmap value (peptide array binding signal) (ING1; ING1, GST-tagged, arrays performed twice, n of 4): 0.5733
- Array Heatmap value (peptide array binding signal) (AIRE (PP); AIRE (PP), GST-tagged, arrays performed twice, n of 4): 0.4246
- Array Heatmap value (peptide array binding signal) (KDM4C (TTP); KDM4C (TTP), GST-tagged, arrays performed twice, n of 4): 0.4883
- Array Heatmap value (peptide array binding signal) (KDM5A (3); KDM5A (3), GST-tagged, arrays performed twice, n of 4): 0.4616
- Array Heatmap value (peptide array binding signal) (PHF8; PHF8, GST-tagged, arrays performed twice, n of 4): 0.3718
- Array Heatmap value (peptide array binding signal) (ING5; ING5, GST-tagged, arrays performed twice, n of 4): 0.3641
- Array Heatmap value (peptide array binding signal) (TRIM66 (PB); TRIM66 (PB), GST-tagged, arrays performed twice, n of 4): 0.6142
- Array Heatmap value (peptide array binding signal) (MORC3 (CW); MORC3 (CW), GST-tagged, arrays performed twice, n of 4): 0.3765
- Array Heatmap value (peptide array binding signal) (KDM7A; KDM7A, GST-tagged, arrays performed twice, n of 4): 0.3413
- Array Heatmap value (peptide array binding signal) (ING2; ING2, GST-tagged, arrays performed twice, n of 4): 0.5951
- Array Heatmap value (peptide array binding signal) (CHD5 (PPCC); CHD5 (PPCC), GST-tagged, arrays performed twice, n of 4): 0.558
- Array Heatmap value (peptide array binding signal) (KDM5A (1); KDM5A (1), GST-tagged, arrays performed twice, n of 4): 0.445
- Array Heatmap value (peptide array binding signal) (PHRF1 (RP); PHRF1 (RP), GST-tagged, arrays performed twice, n of 4): 0.4962
- Array Heatmap value (peptide array binding signal) (PHF23; PHF23, GST-tagged, arrays performed twice, n of 4): 0.5427
- Array Heatmap value (peptide array binding signal) (ING3; ING3, GST-tagged, arrays performed twice, n of 4): 0.514
- Array Heatmap value (peptide array binding signal) (PHF13; PHF13, GST-tagged, arrays performed twice, n of 4): 0.6242
- Array Heatmap value (peptide array binding signal) (DPF2 (PPC2W2); DPF2 (PPC2W2), GST-tagged, arrays performed twice, n of 4): 0.7109
- Array Heatmap value (peptide array binding signal) (KDM5B (1); KDM5B (1), GST-tagged, arrays performed twice, n of 4): 0.6396
- Array Heatmap value (peptide array binding signal) (PHF21A; PHF21A, GST-tagged, arrays performed twice, n of 4): 0.4915
- Array Heatmap value (peptide array binding signal) (RAG2; RAG2, GST-tagged, arrays performed twice, n of 4): 0.2588
- Array Heatmap value (peptide array binding signal) (TAF3; TAF3, GST-tagged, arrays performed twice, n of 4): 0.2722
- Array Heatmap value (peptide array binding signal) (SP140L; SP140L, GST-tagged, arrays performed twice, n of 4): 0.3853
- Array Heatmap value (peptide array binding signal) (ING4; ING4, GST-tagged, arrays performed twice, n of 4): 0.4749
- Array Heatmap value (peptide array binding signal) (DIDO1; DIDO1, GST-tagged, arrays performed twice, n of 4): 0.7218
- Array Heatmap value (peptide array binding signal) (PHF2; PHF2, GST-tagged, arrays performed twice, n of 4): 0.5963
- Array Heatmap value (peptide array binding signal) (KDM5B (3); KDM5B (3), GST-tagged, arrays performed twice, n of 4): 0.4591
- Array Heatmap value (peptide array binding signal) (CHD4 (PPCC); CHD4 (PPCC), GST-tagged, arrays performed twice, n of 4): 0.6125
- Array Heatmap value (peptide array binding signal) (BPTF (PB); BPTF (PB), GST-tagged, arrays performed twice, n of 4): 0.3716
- Array Heatmap value (peptide array binding signal) (BAZ2B; BAZ2B, GST-tagged, arrays performed twice, n of 4): 0.4726
- Array Heatmap value (peptide array binding signal) (MLL5; MLL5, GST-tagged, arrays performed twice, n of 4): 0.5584
- Array Heatmap value (peptide array binding signal) (CHD5 (PCC); CHD5 (PCC), GST-tagged, arrays performed twice, n of 4): 0.8139

Source: paper PMC6979384, “Characterization of the plant homeodomain (PHD) reader family for their histone tail interactions” (Epigenetics & Chromatin, 2020)
